Data published in US4487770A, “Treatment of diseases of the liver, kidney, colon and rectum” (Nippon Shinyaku Co., Ltd., priority 1981, dated 1984).
Where two headings read alike, the source gives them in different places.

How the values were obtained:
[1] = tested on: hepatic and renal disorders induced by carbon tetrachloride in rats; assay: Effect on hepatic and renal disorders induced by administration of carbon tetrachloride; format: in vivo, rat (Sprague-Dawley strain); conditions: after CCl4; for Body Weight: average ± S.E., n=10; for Liver Wt.: saline 10.5 ± 1.9; for BUN: saline 56.6 ± 10.6; for GPT: saline 2206 ± 298; for LDH: saline 22425 ± 9211
Procedure: Effect on hepatic and renal disorders induced by administration of carbon tetrachloride
Five groups of male rats of Sprague-Dawley strain (body weight: 200 grams) were used (ten rats per group). All of these rats were given 4 ml/kg of 50% carbon tetrachloride (used with olive oil) by oral route. After 24 hours, the rats were killed by decapitation, and blood was taken and the liver was isolated therefrom. Previously, the rats were fasted for 18 hours before taking blood therefrom. The blood was subjected to quantitative determination of GOT, GPT, LDH and BUN and the weights of isolated livers were measured.
Compound I was given to the rats of four groups, two to six hours after the administration of carbon tetrachloride (in other words, at the time when hepatic and renal disorders caused by carbon tetrachloride had already appeared) at the dose of 5, 10, 25 or 50 mg/kg by oral route. Physiological saline in an amount of 1 ml/kg/day to the rats of the fifth group. Rats of a sixth group that received no carbon tetrachloride, served as a control, and were also autospied, as above.

[2] = tested on: intestinal bacteria; assay: action on intestinal bacteria, standard test by Japan Antibiotic Association
Excerpt: As a mechanism for the resulting colitis by administration of APS, the physico-chemical properties of APS must be involved. […] Therefore, there is no contribution of antibacterial activity in the effect of compound I against colitis. In view of the above, it is clear that the effect of the compound I against colitis is due to the direct protection of large intestinal mucosal cells by compound I.

[3] = tested on: erythrocytic membrane; assay: Enhancement of resistance of erythrocytic membrane (hypoosmotic hemolysis); format: cell-based, rat (Sprague-Dawley strain); conditions: for inhibition at 770 µM / hemolysis at 770 µM: Rattus norvegicus, Erythrocyte, 0.5 h; for inhibition at 770 µM: read-out: Percent Inhibition Ratio (hemolysis); for hemolysis at 770 µM: average of five ± S.E., p < 0.05
Procedure: Enhancement of resistance of erythrocytic membrane
Sprague-Dawley strain rats were treated with heparine and blood samples were obtained therefrom. The blood was centrifuged at 3000 rpm for ten minutes to remove blood plasma and then washed with 10 mM phosphate buffer-physiological saline solution (pH 7) to wash erythrocyte. To each volume of blood required to obtain the erythrocyte, 19 volumes of hypoosmotic solution (containing 10 mM phosphate buffer) was added and an erythrocyte suspension (5% erythrocyte suspension) was prepared. With reference to hemolysis, the absorbancy (O.D.) at 540 nm using distilled water as the hypoosmotic solution so that completely hemolyzed was defined as "100% hemolysis".
An erythrocyte suspension with 0.4%/0.45% hypoosmotic saline solution was incubated at 37° C. for 30 minutes, centrifuged at 3000 rpm for 10 minutes, and the percent hemolysis was calculated from the O.D. of the supernatant liquid.

[4] = solubility in water; format: physicochemical
[5] = tested on: ddY strain mice; assay: Acute toxicity test in mice; format: in vivo; conditions: mice and rats
Excerpt: (§1) The LD50 values of compound I in ddY strain mice (6 weeks of age) and in Sprague-Dawley strain rats (7 weeks of age) are given in Table 4.

[6] = Acute toxicity test in mice; format: in vivo; conditions: mouse, in vivo, read-out: LD50 (95% fiducial limits)
Excerpt: as §1

[7] = Acute toxicity test in rats; conditions: rat, in vivo, read-out: LD50 (95% fiducial limits)
Excerpt: as §1

[8] = tested on: guinea pigs having colitis caused by amylopectine sulfate; assay: Effect on colitis induced by administration of amylopectine sulfate (APS); format: in vivo, guinea pig (Hartley strain); conditions: 2 weeks; for Symptom: Colitis Incidence: saline group 100%; for Symptom: Area of Ulcer: saline group 120 ± 24
Procedure: Effect on colitis induced by administration of amylopectine sulfate (according to the method reported in J. Gastroenterology, 67, 473-483, 1974 by Marcus, R and Watt)
Sixty male guinea pigs of Hartley strain (body weight: 200 grams) were used. Among them, fifty guinea pigs were given tap water containing 1% amylopectine sulfate ("APS") as drinking water and were bred for four weeks. (APS contains about 15% sulfur.)
The animals in these five groups were administered 1 ml/kg/day of physiological saline solution and 5, 10, 25 and 50 mg/kg/day of compound I for two weeks by oral route. The other ten guinea pigs were untreated controls and were given untreated tap water as drinking water and were bred for four weeks under the same circumstances as those of the experimental groups.
After two weeks, the animals were killed by overinhalation of ether, the large intestines were removed and the degree of colitis was determined by observing the incidence of ulcers and the area of ulcers with a stereoscopic microscope (×10). The results are given in Table 1, and the changes in body weight during the administration of the compound I is given in the drawing.

SMILES: Nc1nc(N)nc(-c2cc(Cl)ccc2Cl)n1.O=C(O)/C=C\C(=O)O [Compound I, 2,4-diamino-6-(2', 5'-dichlorophenyl)-s-triazine maleate]
- Body Weight ([1]; 5 mg/kg oral): 198.6 ± 0.5 g
- Liver Wt. ([1]; 5 mg/kg oral): 9.6 ± 2.2 g
- BUN ([1]; 5 mg/kg oral): 42.0 ± 9.8 mg/dL
- GPT ([1]; 5 mg/kg oral): 1920 ± 306 Karmen Unit
- LDH ([1]; 5 mg/kg oral): 16341 ± 9009 Wroblewski Unit
- GOT ([1]; 5 mg/kg oral, saline printed 3,91 ± 361): 2215 ± 250 Karmen Unit
- Body Weight ([1]; 10 mg/kg oral): 199.1 ± 0.7 g
- GOT ([1]; 10 mg/kg oral, p < 0.05 vs saline): 1822 ± 249 Karmen Unit
- Liver Wt. ([1]; 10 mg/kg oral): 9.5 ± 2.5 g
- BUN ([1]; 10 mg/kg oral): 34.6 ± 7.2 mg/dL
- GPT ([1]; 10 mg/kg oral): 1566 ± 354 Karmen Unit
- LDH ([1]; 10 mg/kg oral): 12209 ± 6214 Wroblewski Unit
- Body Weight ([1]; 25 mg/kg oral): 200.6 ± 0.6 g
- Liver Wt. ([1]; 25 mg/kg oral): 8.3 ± 1.5 g
- BUN ([1]; 25 mg/kg oral): 31.4 ± 8.8 mg/dL
- GPT ([1]; 25 mg/kg oral, p < 0.05): 1012 ± 261 Karmen Unit
- LDH ([1]; 25 mg/kg oral): 8054 ± 3666 Wroblewski Unit
- Body Weight ([1]; 50 mg/kg oral): 198.6 ± 0.8 g
- GOT ([1]; 50 mg/kg oral, p < 0.05 vs saline): 1339 ± 211 Karmen Unit
- Liver Wt. ([1]; 50 mg/kg oral): 7.4 ± 2.0 g
- BUN ([1]; 50 mg/kg oral, p < 0.05): 29.7 ± 3.5 mg/dL
- GPT ([1]; 50 mg/kg oral, p < 0.05): 805 ± 134 Karmen Unit
- LDH ([1]; 50 mg/kg oral, p < 0.05): 5003 ± 1642 Wroblewski Unit
- effect on increase of BUN (in words) ([1]; oral): inhibited the increase of BUN
- effect on liver weight, GOT, GPT and LDH (in words) ([1]; oral): depressed the increase of liver weight and the increase in GOT, GPT, and LDH
- action on intestinal bacteria [2]: does not exhibit any action on intestinal bacteria
- inhibition of hemolysis (in words) ([3]; 0.77 mM, 0.4 and 0.45% saline): shows inhibition of hemolysis
- protective action to erythrocyte membranes (in words) ([3]; 0.77 mM, 0.4 and 0.45% saline): exhibits protective action to erythrocyte membranes
- inhibition at 770 µM ([3]; 0.77 mM, 0.4% saline solution): 35.5%
- inhibition at 770 µM ([3]; 0.77 mM, 0.45% saline solution): 62.2%
- hemolysis at 770 µM ([3]; read-out: Percent Hemolysis Ratio, 0.77 mM, 0.4% saline solution, control 70.8 ± 0.6): 45.7 ± 1.8%
- hemolysis at 770 µM ([3]; read-out: Percent Hemolysis Ratio, 0.77 mM, 0.45% saline solution, control 27.5 ± 2.1): 10.4 ± 1.1%
- solubility at 0.5 h ([4]; saturated solution in water): 770 µM
- solubility in water (in words) ([4]; water): hardly soluble in water
- safety (LD50 compared with effective dose, in words) [5]: highly safe
- LD50 ([6]; ip, mice female, intraperitoneal): 1010 mg/kg
- LD50 ([6]; ip, mice male, intraperitoneal): 775 mg/kg
- LD50 ([6]; po, mice female, oral): 5700 mg/kg
- LD50 ([6]; po, mice male, oral): 6040 mg/kg
- LD50 ([6]; sc, mice female, subcutaneous): 3220 mg/kg
- LD50 ([6]; sc, mice male, subcutaneous): 2840 mg/kg
- LD50 ([7]; ip, rats female, intraperitoneal): 789 mg/kg
- LD50 ([7]; ip, rats male, intraperitoneal): 802 mg/kg
- LD50 ([7]; po, rats female, oral): 2920 mg/kg
- LD50 ([7]; po, rats male, oral): 2900 mg/kg
- LD50 ([7]; sc, rats female, subcutaneous): 1520 mg/kg
- LD50 ([7]; sc, rats male, subcutaneous): 1600 mg/kg
- Average Intake of APS, after administration of Compound I ([8]; 5 mg/kg/day oral): 0.91 g/kg/2w
- Increase in Body Weight (2-4 wks) ([8]; 5 mg/kg/day oral, saline group 2 ± 10, control 110 ± 11): 11 ± 12 g
- Symptom: Colitis Incidence ([8]; 5 mg/kg/day oral): 90%
- Symptom: Area of Ulcer ([8]; 5 mg/kg/day oral): 65 ± 20 mm^2
- Average Intake of APS, after administration of Compound I ([8]; 10 mg/kg/day oral): 1.12 g/kg/2w
- Increase in Body Weight (2-4 wks) ([8]; 10 mg/kg/day oral, saline group 2 ± 10, control 110 ± 11): 26 ± 15 g
- Symptom: Colitis Incidence ([8]; 10 mg/kg/day oral): 80%
- Symptom: Area of Ulcer ([8]; 10 mg/kg/day oral): 50 ± 24 mm^2
- Average Intake of APS, after administration of Compound I ([8]; 25 mg/kg/day oral): 1.26 g/kg/2w
- Increase in Body Weight (2-4 wks) ([8]; 25 mg/kg/day oral, saline group 2 ± 10, p < 0.05): 36 ± 13 g
- Symptom: Colitis Incidence ([8]; 25 mg/kg/day oral): 60%
- Symptom: Area of Ulcer ([8]; 25 mg/kg/day oral, p < 0.05): 43 ± 15 mm^2
- Average Intake of APS, after administration of Compound I ([8]; 50 mg/kg/day oral): 1.24 g/kg/2w
- Increase in Body Weight (2-4 wks) ([8]; 50 mg/kg/day oral, saline group 2 ± 10, p < 0.05): 54 ± 10 g
- Symptom: Colitis Incidence ([8]; 50 mg/kg/day oral): 60%
- Symptom: Area of Ulcer ([8]; 50 mg/kg/day oral, p < 0.05): 34 ± 12 mm^2
- effect on body weight of afflicted animals (in words, drawing) ([8]; oral): greatly increases the body weight of the afflicted animals
- effect on colitis (in words) ([8]; oral): improvement in the colitis followed by increase in body weight was observed
- intake of APS (in words) ([8]; oral): the intake of APS did not decrease, but rather increased
